Test results as given in PMC13192270, “RhlR quorum-sensing receptor ligand sensitivity regulates the differential expression of phenazine genes in Pseudomonas aeruginosa” (Journal of Bacteriology, 2026).
Changes are numbered by the printed parent chain.

Tests used:
Test in all cases: E. coli prhlA-luxCDABE luciferase reporter assay
RhlR (T58V) = target: T1, RhlR (T58V) (Pseudomonas aeruginosa, UniProt P54292, T58V); assay type: cell-based
T1 construct: expressed in transfected cells; host or cells: E. coli carrying pBAD-A-rhlR mutant, pCS26-prhlA-luxCDABE and pACYC-pqsE or empty pACYC
T1 sequence (P54292 1-241 T58V): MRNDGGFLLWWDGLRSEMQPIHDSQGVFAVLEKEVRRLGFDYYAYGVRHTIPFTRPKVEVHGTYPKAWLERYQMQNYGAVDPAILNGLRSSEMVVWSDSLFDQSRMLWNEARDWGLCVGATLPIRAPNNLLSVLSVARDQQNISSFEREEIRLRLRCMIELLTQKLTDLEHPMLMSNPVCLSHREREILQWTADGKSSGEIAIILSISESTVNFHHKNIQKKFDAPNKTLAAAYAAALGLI
Text: (§1) Previous analysis of the RhlR LBP focused on highly conserved residues that were known from other AHL-binding proteins to be important contacts for AHL molecules, particularly the lactone head group. We performed conservation analyses on 300 LuxR-type receptors to determine variable and moderately conserved residues in the LBP (Fig. 1B) and, in conjunction with our previously determined experimental structure of WT RhlR bound to the synthetic agonist mBTL, used for docking C4- and C6HSL. Based on our docking simulations, C4- and C6HSL occupy a similar position in the LBP as mBTL, a highly efficacious activator of RhlR (Fig. 1C; Fig. S1). We targeted residues A44, G46, T58, L69, Y72, D81, I84, W96, and W108 (Fig. 1B and C). These residues were selected because of their proximity to the acyl tail of C4HSL, as well as the differences in conservation that are observed at these sites. We used an E. coli luciferase reporter assay to monitor ligand-dependent activation of WT RhlR and RhlR variants. WT RhlR and RhlR variants were expressed under the control of an arabinose-inducible promoter (Fig. S2). Transcription was monitored by light production via the expression of the luxCDABE operon controlled by the RhlR-dependent promoter of rhlA. Binding of RhlR to the rhlA promoter is highly dependent on the C4HSL-RhlR interaction, based on ChIP-seq analyses performed in P. aeruginosa as well as previously published E. coli reporter systems ([34], [39]). After expressing WT RhlR and RhlR variants in the E. coli reporter system, we performed dose response assays using C4HSL to calculate the concentration of C4HSL required to activate the reporter system to 50% maximum levels (EC50 value; Table 1). As expected, transcription activation by WT RhlR increased with increased C4HSL levels, with an EC50 value of ~2 µM. We observed a range of responses. Figure 1C depicts the targeted residues, which are colored based on the effect of amino acid substitution.
(§2) RhlR requires the accessory-binding protein, PqsE, for maximal activity. To determine if PqsE expression altered the activation of RhlR variants, we assessed AHL-dependent RhlR activation of the prhlA-luxCDABE reporter in the presence of a third plasmid that constitutively expresses PqsE in E. coli. […] RhlR variants that were still active but with increased EC50 values for C4HSL could have their activity enhanced by PqsE. […] Thus, alterations to the LBP can diminish the additive effect of PqsE-dependent transcription, indicating a potential role of allosteric conformational changes dependent on ligand occupancy. […] RhlR variants at residues I84 and W108 could not be activated by C4HSL, and thus, light levels remained low at all concentrations that were tested. Unlike the aforementioned variants, RhlR I84M/W and RhlR W108F/Y were activated by the expression of PqsE (Fig. S4).
(§3) All E. coli strains in this study were grown overnight with shaking in 5 mL Luria-Bertani (LB) media supplemented with 100 µg/mL ampicillin, 50 µg/mL kanamycin, and 15 µg/mL tetracycline at 37°C overnight. Overnight cultures were diluted 1:100 into fresh media, grown at 37°C with shaking for 2 h until reaching OD600 = 0.4. Cultures were induced with a final concentration of 0.1% arabinose, and 198 μL of the induced culture was mixed with 2 μL of C4HSL dilutions in a clear-bottom, black-opaque 96-well plate (Corning) and grown at 37°C with shaking for 4 h. The C4HSL dilution series was performed 1:1 in dimethyl sulfoxide (DMSO) with a top final concentration of 10 μM. Luminescence and optical density were recorded using a Glomax (Promega) plate reader.

RhlR (L69M) = target: T2, RhlR (L69M) (Pseudomonas aeruginosa, UniProt P54292, L69M); assay type: cell-based
T2 construct: expressed in transfected cells; host or cells: E. coli carrying pBAD-A-rhlR mutant, pCS26-prhlA-luxCDABE and pACYC-pqsE or empty pACYC
Text: as §1, §2, §3

RhlR (I84M) = target: T3, RhlR (I84M) (Pseudomonas aeruginosa, UniProt P54292, I84M); assay type: cell-based; settings: pqsE co-expressed
T3 construct: expressed in transfected cells; host or cells: E. coli carrying pBAD-A-rhlR mutant, pCS26-prhlA-luxCDABE and pACYC-pqsE or empty pACYC
Text: as §1, §2, §3

RhlR (G46W) = target: T4, RhlR (G46W) (Pseudomonas aeruginosa, UniProt P54292, G46W); assay type: cell-based; settings: even at the highest dose of C4HSL tested
T4 construct: expressed in transfected cells; host or cells: E. coli carrying pBAD-A-rhlR mutant, pCS26-prhlA-luxCDABE and pACYC-pqsE or empty pACYC
Text: as §1, §2, §3

RhlR (G46M) = target: T5, RhlR (G46M) (Pseudomonas aeruginosa, UniProt P54292, G46M); assay type: cell-based
T5 construct: expressed in transfected cells; host or cells: E. coli carrying pBAD-A-rhlR mutant, pCS26-prhlA-luxCDABE and pACYC-pqsE or empty pACYC
Text: as §1, §2, §3

RhlR (A44M) = target: T6, RhlR (A44M) (Pseudomonas aeruginosa, UniProt P54292, A44M); assay type: cell-based; settings: even at the highest dose of C4HSL tested
T6 construct: expressed in transfected cells; host or cells: E. coli carrying pBAD-A-rhlR mutant, pCS26-prhlA-luxCDABE and pACYC-pqsE or empty pACYC
Text: as §1, §2, §3

RhlR (T58L) = target: T7, RhlR (T58L) (Pseudomonas aeruginosa, UniProt P54292, T58L); assay type: cell-based, Escherichia coli
T7 construct: expressed in transfected cells; host or cells: E. coli carrying pBAD-A-rhlR mutant, pCS26-prhlA-luxCDABE and pACYC-pqsE or empty pACYC
T7 sequence (P54292 1-241 T58L): T1 sequence (P54292 1-241 T58V) with V58L
Text: as §1, §2, §3

RhlR (T58I) = target: T8, RhlR (T58I) (Pseudomonas aeruginosa, UniProt P54292, T58I); assay type: cell-based, Escherichia coli
T8 construct: expressed in transfected cells; host or cells: E. coli carrying pBAD-A-rhlR mutant, pCS26-prhlA-luxCDABE and pACYC-pqsE or empty pACYC
T8 sequence (P54292 1-241 T58I): T1 sequence (P54292 1-241 T58V) with V58I
Text: as §1, §2, §3

## CCCC(=O)N[C@H]1CCOC1=O [C4HSL, N-butyryl-L-homoserine lactone]
RhlR (T58V); Vector (no pqsE)
  EC50: 660 nM
RhlR (T58V); pqsE co-expressed
  EC50: 148 nM
RhlR (L69M); Vector (no pqsE)
  EC50: 13800 nM
RhlR (L69M); pqsE co-expressed
  EC50: 1720 nM
RhlR (I84M)
  EC50: 3680 nM
RhlR (G46W)
  activation by C4HSL in the reporter system: not activated
RhlR (G46M); even at the highest dose of C4HSL tested
  activation by C4HSL in the reporter system: not activated
RhlR (G46M); pqsE co-expressed
  EC50: 32700 nM
RhlR (A44M)
  activation by C4HSL in the reporter system: not activated
RhlR (T58L); Vector (no pqsE)
  EC50: 854 nM
RhlR (T58L); pqsE co-expressed
  EC50: 99 nM
RhlR (T58I); Vector (no pqsE)
  EC50: 1820 nM
RhlR (T58I); pqsE co-expressed
  EC50: 120 nM
